In publication PMC4979060, “Structural basis of metallo-β-lactamase, serine-β-lactamase and penicillin-binding protein inhibition by cyclic boronates” (Nature Communications, 2016):

How the values were obtained:
NDM-1 = target: T1, NDM-1 (Klebsiella pneumoniae, UniProt C7C422); assay: Fluorogenic β-lactamase inhibition assay (FC-5 substrate), NDM-1; type: biochemical
T1 construct: made in house; host or cells: E. coli
Experimental: (§1) Kinetic and inhibition analyses, and ^19F NMR studies[10] against bacterial β-lactamases were performed as described. The FC-5 cephalosporin[9] was used as substrate for BcII, VIM-2, IMP-1, NDM-1, SPM-1, TEM-1 and OXA-10, meropenem[28] for CphA and nitrocefin[34] for PBP 3 and PBP 5.
(§2) In brief IC50 values were determined by preincubation of the appropriate amount of enzyme with the cyclic boronates in the assay buffers for 10 min at room temperature prior to the initiation of the assay by the addition of the appropriate substrate. The enzyme concentrations used are the following: 1 nM BcII, 100 nM VIM-2, 10 nM IMP-1, 10 nM NDM-1, 1 nM SPM-1, 1 nM TEM-1, 1 nM OXA-10, 2.5 nM CphA, 4 μM PBP 3 and 5 μM PBP 5; note that the final concentrations are stated. The assay buffers used are the following: 50 mM HEPES, pH 7.2 supplemented with 1 μg BSA, 1 μg ZnSO4 and 0.01% Triton for BcII, VIM-2, IMP-1, NDM-1 and SPM-1, 15 mM MES, pH 6.5 for CphA, 50 mM HEPES, pH 7.2 supplemented with 200 mM NaCl and 0.01% Triton 100 for TEM-1, 100 mM sodium phosphate, pH 7.2 supplemented with 50 mM NaHCO3 and 0.01% Triton 100 for OXA-10 and 50 mM HEPES, pH 7.2 supplemented with 200 mM NaCl and 0.01% Triton 100 for PBP 3 and PBP 5. The amount of substrates used is the following: 5 μM for BcII, VIM-2, IMP-1, NDM-1 and SPM-1, 10 μM for TEM-1 and OXA-10, 125 μM for CphA and 25 μM for PBP 3 and PBP 5; note that the final concentrations are stated.
(§3) The experiments were performed using a PHERAstar FS microplate reader (BMG Labtech) at room temperature (24–25 °C). All enzymes and inhibitors were prepared in the specific assay buffer. The kinetic values in this study are the means from at least three independent measurements; at least nine different concentrations of the inhibitor were used to determine the kinetic parameters (IC50). The IC50 values were determined using the software package Graph Prism 5.

TEM-1 = target: T2, TEM-1 (Escherichia coli, UniProt P62593); assay: Fluorogenic β-lactamase inhibition assay (FC-5 substrate), TEM-1; type: biochemical
T2 construct: made in house; host or cells: E. coli
Experimental: as §1, §2, §3

OXA-10 = target: T3, OXA-10 (Pseudomonas aeruginosa, UniProt P14489); assay: Fluorogenic β-lactamase inhibition assay (FC-5 substrate), OXA-10; type: biochemical
T3 construct: made in house; host or cells: E. coli
Experimental: as §1, §2, §3

PBP 5 (dacA) = target: T4, PBP 5 (dacA) (Escherichia coli, UniProt P0AEB2); assay: PBP inhibition assay (nitrocefin substrate), PBP 5; type: biochemical
T4 construct: made in house; host or cells: E. coli
Experimental: as §1
In brief IC50 values were determined by preincubation of the appropriate amount of enzyme with the cyclic boronates in the assay buffers for 10 min at room temperature prior to the initiation of the assay by the addition of the appropriate substrate. The enzyme concentrations used are the following: 1 nM BcII, 100 nM VIM-2, 10 nM IMP-1, 10 nM NDM-1, 1 nM SPM-1, 1 nM TEM-1, 1 nM OXA-10, 2.5 nM CphA, 4 μM PBP 3 and 5 μM PBP 5; note that the final concentrations are stated. […]
The experiments were performed using a PHERAstar FS microplate reader (BMG Labtech) at room temperature (24–25 °C). […] The IC50 values were determined using the software package Graph Prism 5.

HEK293 cells = assay: Cytotoxicity assay (MTS); type: cell-based; conditions: human HEK293 cells, concentrations up to 100 μM, 24 h
Experimental: HEK293 cells were seeded (2,000 per well) in normal DMEM in 96-well plates.[34] After 24 h, wells were dosed with titrated concentration of compounds in 1% dimethyl sulphoxide (DMSO)—final volume of media about 100 μl. Following a further 24 h incubation period, 20 μl tetrazolium (MTS, CellTiter96Aqueous One Solution (Promega)) was added to the media in each well. The plate was incubated at 37 °C, 5% CO2 for 4 h in the dark before absorbance was read at 490 nm to determine cell proliferation values.

M67C NDM-1 = M67C NDM-1 (Klebsiella pneumoniae, UniProt C7C422, M67C); assay: 19F-protein NMR binding study; conditions: M67C NDM-1 labelled with 1,1,1-trifluoro-3-bromo acetone
Experimental: as §1
Supplementary Fig. 1. 19F NMR analyses of the NDM-1*-di-Zn(II)-2 complex. Titration using 2 gave rise to a new signal corresponding to a 2-NDM-1* complex, even at low concentrations of 2 indicating tight binding; at a 1:1, enzyme:inhibitor ratio (NDM-1*:2) no signals corresponding to uncomplexed NDM-1* species were observed. NDM-1* = NDM-1 M67C variant modified by reaction with BrCH COCF 1.
Supplementary Fig. 2. Cytotoxicity of 1,2 and Staurosporine (a control) using HEK293 cells.
(also on this page, place not known: enzyme: inhibitor NDM -1 BrCH2COCF3 -2 -1 0 1 0.5 1.0 1.5 - Log concentration (µM) Abs 490 HEK293 - 2 HEK293 - 1 Staurosporine HEK293) […]

T4 sequence (P0AEB2 30-403): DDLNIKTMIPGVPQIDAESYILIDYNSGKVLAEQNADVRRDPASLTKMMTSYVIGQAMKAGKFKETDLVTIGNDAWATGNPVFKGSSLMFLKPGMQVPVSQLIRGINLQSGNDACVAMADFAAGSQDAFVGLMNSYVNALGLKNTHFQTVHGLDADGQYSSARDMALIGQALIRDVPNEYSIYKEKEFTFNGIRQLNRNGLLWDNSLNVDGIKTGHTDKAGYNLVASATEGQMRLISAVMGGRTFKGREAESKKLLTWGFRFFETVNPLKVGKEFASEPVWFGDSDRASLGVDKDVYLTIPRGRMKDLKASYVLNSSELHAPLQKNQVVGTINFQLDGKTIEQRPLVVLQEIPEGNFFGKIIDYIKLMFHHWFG
T3 sequence (P14489 20-266, species assumed): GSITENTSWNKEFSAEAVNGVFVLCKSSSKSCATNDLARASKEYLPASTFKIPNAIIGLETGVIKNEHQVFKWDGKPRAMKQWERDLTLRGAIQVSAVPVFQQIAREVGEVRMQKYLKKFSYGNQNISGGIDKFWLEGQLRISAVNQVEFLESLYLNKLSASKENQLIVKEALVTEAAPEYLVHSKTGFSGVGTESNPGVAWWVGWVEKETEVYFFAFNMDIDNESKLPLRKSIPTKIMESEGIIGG
T2 sequence (P62593 24-286 limits assumed): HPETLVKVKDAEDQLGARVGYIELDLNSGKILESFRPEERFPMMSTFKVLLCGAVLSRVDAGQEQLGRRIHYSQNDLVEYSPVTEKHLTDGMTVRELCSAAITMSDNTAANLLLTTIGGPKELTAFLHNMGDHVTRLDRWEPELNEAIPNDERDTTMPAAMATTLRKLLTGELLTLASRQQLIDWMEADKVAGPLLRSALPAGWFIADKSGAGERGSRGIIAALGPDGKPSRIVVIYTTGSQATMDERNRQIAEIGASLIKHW
T1 sequence (C7C422 29-270, looked up, species assumed): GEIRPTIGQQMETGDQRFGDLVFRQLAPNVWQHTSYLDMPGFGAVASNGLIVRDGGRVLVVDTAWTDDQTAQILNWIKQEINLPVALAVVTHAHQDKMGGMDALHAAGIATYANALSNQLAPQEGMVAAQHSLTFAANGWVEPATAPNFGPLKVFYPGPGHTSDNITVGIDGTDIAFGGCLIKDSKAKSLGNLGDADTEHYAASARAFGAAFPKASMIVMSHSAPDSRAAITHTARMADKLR
M67C NDM-1, sequence (C7C422 29-270 M67C): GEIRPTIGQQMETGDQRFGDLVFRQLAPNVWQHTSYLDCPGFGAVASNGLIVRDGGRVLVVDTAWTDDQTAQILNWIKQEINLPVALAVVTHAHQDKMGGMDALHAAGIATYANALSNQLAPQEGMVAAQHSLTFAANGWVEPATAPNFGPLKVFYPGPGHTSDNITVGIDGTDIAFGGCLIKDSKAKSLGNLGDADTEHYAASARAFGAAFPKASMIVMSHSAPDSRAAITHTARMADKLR

## NCc1ccc(C(=O)N[C@H]2Cc3cccc(C(=O)O)c3O[B-]2(O)O)cc1 [compound 2]
NDM-1
  pIC50: 7.5
NDM-1; 10 min preincubation
  IC50: 0.029 µM
TEM-1
  pIC50: 8.4
TEM-1; 10 min preincubation
  IC50: 0.003 µM
OXA-10
  pIC50: 5.2
OXA-10; 10 min preincubation
  IC50: 5.1 µM
PBP 5 (dacA)
  pIC50: 8.7
PBP 5 (dacA); 10 min preincubation
  IC50: 0.0016 µM
HEK293 cells
  cytotoxicity: Neither 1 nor 2 showed cytotoxicity
M67C NDM-1
  binding to the active site by 19F NMR titration: tight binding
